Patent US20060063209A1, “Engineered antibody fragment that irreversibly binds an antigen” (THE REGENTS OF THE UNIVERSITY OF CALIFORNIA, priority 2004, published 2006)
Entries after “also recorded” stand apart in the source; their conditions may differ.

How the values were obtained:
[1] = system: G54C mutant of 2D12.5; assay: Permanent binding to G54C, competitive 90Y-AABD attachment, SDS-PAGE; conditions: 37° C.
Protocol: FIG. 17 a) Scheme describing the permanent binding pair. b) Infinite binding is observed not only for ^90Y-AABD but also for ^111In-AABD, assayed by SDS-PAGE under denaturing conditions where only permanently bound complexes remain attached to the antibody.
FIG. 18 The G54C mutant was preincubated in triplicate with 10 μM AABD complexes of Y^3+, In^3+ or Cu^2+, a negative control N-(1-carbamoyl-2-(4-nitrophenyl)-ethyl)-acrylamide or N-(4-carboxymethylphenyl)-acrylamide, or just buffer, for 5 min, 20 min or 120 min at 37° C., pH 7.5. At the stated times ^90Y-AABD (1 μM) was added to each solution to compete for free G54C. Permanent binding was assayed by measuring band intensities after SDS-PAGE. a) Phosphorimage of gel. The fainter the bands, the greater the permanent binding by the unlabeled ligand. b) Crystal structures of Y-DOTA, In-DOTA-mono(p aminoanilide) (some atoms removed for clarity) and Cu-DOTA.
FIG. 19 a) Metal-AABD (10 μM) complexes were preincubated separately with aliquots of G54C for 5 min, followed by addition of 1 μM ^90Y-AABD, which competes for free G54C, and SDS-PAGE analysis. b) From quantitative phosphorimaging, the highest-affinity AABD complexes form permanent bonds with G54C with higher yields than more 3+weakly binding rare earth-AABD complexes whose ionic radii are slightly smaller (Lu Yb^3+) or larger (Ce^3+, La^3+) than ideal.
We were curious to see if an even weaker binder such as a copper chelate (KD˜10^−4 M for Cu-NBD) would bind irreversibly under ordinary conditions. We tested this by comparing the permanent binding of Y^3+-, In^3+-, and Cu^2+-AABD, using competitive ^90Y-AABD attachment as an indicator (FIG. 18). […] Weaker binding In-AABD blocks >50% of the sites after 5 min preincubation, and even more at later times. Very weakly binding Cu-AABD initially occupies only about 10% of the G54C sites under these conditions, but it has permanently attached to G54C in good yield after 2 hr, blocking>70% of the sites.

[2] = system: G54C Fab; assay: Kinetics of permanent bond formation with G54C Fab; type: binding
Protocol: FIG. 21 Kinetics of permanent bond formation between G54C Fab (1 μM) and 10 μM ^90Y-labeled YAABD. The addition of a high concentration of Y-NBD, a reversibly binding competitor, after 6 min competitively blocks the re-binding of any Y-AABD that dissociates without forming a permanent bond. The experiment containing no competitor, on the other hand, allows any Y-AABD molecules initially bound in an unproductive mode to rebind in an orientation favorable for permanent covalent bond formation until a maximum is reached.
The question to be addressed was the probability that Y-AABD reacts with G54C the first time it forms a complex, instead of dissociating and rebinding. In the first experiment ^90Y-labeled Y-AABD (10 μM) was added to G54C Fab (1 μM) at 37° C., pH 7.5. Samples were withdrawn at various times and were immediately added to SAB, boiled and reduced under denaturing conditions to halt any further permanent bond formation. Samples were analyzed by SDS-PAGE, and the extent of permanent bond formation was determined by measuring the relative radioactivity of bands.
In a second experiment, performed in parallel, conditions were identical to the first except that the reversible competitor Y-NBD was added in vast excess (1 mM) relative to Y-AABD after 6 min, allowing labeled Y-AABD complexes to form bonds or dissociate, but competitively blocking any re-binding of Y-AABD to G54C.

[3] = system: antibody 2D12.5; assay: Competitive immunoassay (ELISA) of metal chelate binding; parameters: species or system mouse; conditions: reversible binding to parental 2D12.5
From the text: FIG. 9 Relative binding of metal-(S)NBD complexes to antibody 2D12.5. A representative set of competitive binding curves obtained from ELISA experiments. Distance between midpoints is related to difference between dissociation constants. Error bars (representing the standard error of the mean) are shown but are generally smaller than the data points.
FIG. 14 Binding of yttrium chelates with different stereochemistry to antibody 2D12.5, showing that the antibody binds a chelate with the side chain in the R configuration approximately one order of magnitude less well than the S configuration. […] Error bars are smaller than the data symbols. Data were generated by competitive ELISA.
A competitive immunoassay to measure the binding constants of various metal-(S)NBD complexes relative to the original Y^3+ complex (FIG. 9) was developed to assess the metal selectivity of antibody 2D12.5. Briefly, 2D12.5 was incubated at 37° C. in the presence of immobilized HSA-21T-Y-(S)BAD and a soluble metal-(S)NBD competitor (Y-(S)BAD was linked to human serum albumin via 2-iminothiolane). The metal-(S)NBD concentration was varied from μM to pM in order to determine the relative binding affinity of 2D12.5 for each metal chelate in comparison to Y-(S)NBD. […] Other antibodies that bind metal chelates do so with a strong preference for one or possibly two metals (Love, R. et al., Biochemistry 32, 10950-10959 (1993), and Khosraviani, M., et al., (2000) Bioconjugate Chem., 11, 267-277). For example, the (S)NBD chelate of group IIIB ion Sc(III) binds to the antibody with a much lower affinity (<1%) than the strongest binding rare earth complexes, perhaps because Sc(III) has a much smaller ionic radius (Meehan, P. R., et al., Coord. Chem. Rev., 181, 121145, and Shannon, R. D. (1976) Acta Crystallogr., Sect. A: Found. Crystallogr., A32, 751-767).

[4] = system: S95C Fab; assay: Competition assay: blocking covalent attachment of 111In-AABE; type: binding; conditions: excess nonradioactive ABE-metal chelate
From the text: (a) Competition ELISA curves. Different metal-ABE chelates compete with an immobilized indium chelate for binding Fab S95C. (b) Competitive binding of a series of metal-ABE chelates, measured by blocking the covalent attachment of ^111In-AABE to Fab S95C. SDSPAGE gel bands show increased labeling of the light chain with decreasing competition.
To further confirm that S95C Fab retained the ligand-binding specificity, we performed a competition assay to see whether nonradioactive ABE-indium, -iron, -cadmium, -scandium, or -gallium could block the covalent attachment of ^111In-AABE.

[5] = Whole-body clearance of indium-111 labeled electrophilic benzyl-EDTA derivatives; type: in vivo; conditions: indium-111 labeled chelate, BALB/c mice; for apparent half-life, whole-body clearance: after tail-vein injection
Protocol: FIG. 4 Whole-body clearance of indium-^111I labeled electrophilic derivatives of benzyl-EDTA from BALB/c mice after tail-vein injection. Here the objective was to find an electrophilic chelate that clears from the animal quickly when not captured by an engineered CHA255.
As reactive ligands, a small set of chelates bearing electrophilic para substituents (FIG. 3) that could react with cysteine were prepared. To be most useful, the electrophilic ligands should be stable in biological media so that they not react prematurely with common biological nucleophiles such as the cysteine on glutathione or in albumin (Geigy Scientific Tables Vol 3, C. Lentner, ed., Ciba-Geigy Ltd., Basel, Switz (1984)). The whole-body clearance of the radiolabeled chelates from mice was studied (FIG. 4 and Chmura, A. J., et al., J. Controlled Release 78:249-258 (2002)) to identify the electrophilic chelates that are unreactive in plasma in vitro, and which also quantitatively clear from live animals.

[6] = system: Fab S95C; assay: Covalent attachment of 111In-chelates to engineered Fab S95C (SDS-PAGE); type: binding; conditions: physiological pH and temperature, raw culture medium with 10% fetal calf serum
Protocol: FIG. 5 Conjugation of electrophilic ^111In-benzyl-EDTA derivatives with engineered Fab S95C. Phosphorimage of 10-20% SDS-PAGE gel of samples of complete culture media incubated with ^111In-labeled (A) CABE, (B) CpABE, (C) AABE, and (D) ABE. The radiolabeled light chains migrate near 25 Kd.
To investigate whether either the S95C or the N96C Fab would bind irreversibly to its target, ^111In-labeled chelates bearing electrophilic groups were incubated at physiological pH and temperature with raw tissue culture medium from the cells expressing these recombinant proteins. The culture medium contained 10% fetal calf serum, representative of typical biological media.
The samples were analyzed by denaturing gel electrophoresis (SDS-PAGE). Separation under reducing and denaturing conditions on SDS-PAGE separates the light chain from the heavy chain of each Fab, functionally destroying the antibody-binding pocket. Chelates bound to the Fab but not covalently linked will dissociate because the antibody-binding pocket is no longer folded. […] However, a chelate that not only bound to a Fab but also covalently linked will be attached to the Fab light chain and migrate with it on SDS-PAGE.

[7] = system: Fab S95C; assay: Kinetics of covalent bond formation with Fab S95C; type: binding; conditions: 22° C., pH 7.4
Protocol: FIG. 7 (a) Phosphorimage of a representative SDS-PAGE assay of the extent of permanent attachment of ^111In-AABE to the light chain of Fab S95C. (b)Kinetics of formation of the covalent bond between bound ^111In-AABE and Fab S95C, at 22° C., pH 7.4.
We explored the rate of covalent attachment of the AABE-^111In chelate to the S95C mutant, by monitoring the extent of reaction as a function of time. The covalent attachment was 50% complete in approximately 10 min at 22° C. (FIG. 7).

| SMILES | G54C sites blocked from 90Y-AABD ([1]; 10 μM complex, preincubation 5 min, pH 7.5) | permanent binding to G54C ([1]; pH 7.5, SDS-PAGE, listed as 90Y-AABD) | fraction of molecules reacting upon initial complex formation [2] | Kd [3] | blocking of covalent attachment of 111In-AABE [4] | apparent half-life, whole-body clearance [5] | covalent attachment to Fab S95C light chain [6] | whole-body clearance [5] | covalent attachment to Fab S95C light chain ([6]; listed as 111In-AABE) | covalent attachment to Fab S95C light chain ([6]; listed as AABE-^111In) | time to 50% complete covalent attachment [7] |
| --- | --- | --- | --- | --- | --- | --- | --- | --- | --- | --- | --- |
| C=CC(=O)Nc1ccc(C[C@H]2CN(CC(=O)O)CCN(CC(=O)O)CCN(CC(=O)O)CCN2CC(=O)O)cc1 [Y-AABD, (S)-2-(4-acrylamidobenzyl)-DOTA] | > 90% | permanently and specifically attaches | about half | 4 nM | – | – | – | – | – | – | – |
| Nc1ccc(C[C@@H](CN(CC(=O)O)CC(=O)O)N(CC(=O)O)CC(=O)O)cc1 [ABE, (S)-1-[p-(amino)benzyl]-EDTA, reference compound] | – | – | – | – | effectively blocks the reaction | about 4 h | not | – | – | – | – |
| C=CC(=O)Nc1ccc(C[C@@H](CN(CC(=O)O)CC(=O)O)N(CC(=O)O)CC(=O)O)cc1 [AABE, (S)-1-[p-(acrylamido)benzyl]-EDTA] | – | – | – | – | – | about 4 h | – | showed the required clearance properties; also recorded: clears as completely—and almost as rapidly—as ABE | reacted equally well | reacted with the S95C mutant of CHA255 to permanently tag the light chain | approximately 10 min |
